Data reported in patent publication US10065927B2, “α-ketoacylic isoniazid compounds, process for producing said compounds, use of the compounds in the treatment of tuberculosis” (priority 2015, dated 2018).
≈ marks a conversion by molar mass, not a printed value.

Test system: M. tuberculosis isoniazid resistant strain
Assay: microbe, parasite or virus in culture
Type: cell-based
Conditions: Mycobacterium tuberculosis

SMILES	MIC
CC(=O)Nc1ccccc1C(=O)C(=O)NNC(=O)c1ccncc1 [Compound 2, N-(2-(2-(2-Isonicotinoylhydrazine)-2-Oxoacetyl)Phenyl) Acetamide]	19.2 µM (≈ 6.26 µg/mL)
NNC(=O)c1ccncc1 [Isoniazid]	> 73 µM
